Laboratory results: BindingDB's records for doi:10.1016/s0022-2836(03)00399-1 (Celera, 2003)

Tests used:
Experiment in all cases: Enzyme Assay and Determination of the Inhibition Constants
Prothrombin = Prothrombin (Homo sapiens, UniProt P00734)
Protocol: (§1) Each enzyme was assayed with a set of different concentrations of each inhibitor. […] Ki(apparent) values were calculated from enzyme velocity curves using the software package BatchKi (BioKin Ltd, Madison, WI). These apparent inhibition constants were then converted to Ki values by assuming competitive inhibition and using the formula Ki = Ki(apparent)/(1 + S/Km).

Serine protease 1 [1] = molecular target: T1, Serine protease 1 (Bos taurus, UniProt P00760)
T1 sequence (P00760 whole entry): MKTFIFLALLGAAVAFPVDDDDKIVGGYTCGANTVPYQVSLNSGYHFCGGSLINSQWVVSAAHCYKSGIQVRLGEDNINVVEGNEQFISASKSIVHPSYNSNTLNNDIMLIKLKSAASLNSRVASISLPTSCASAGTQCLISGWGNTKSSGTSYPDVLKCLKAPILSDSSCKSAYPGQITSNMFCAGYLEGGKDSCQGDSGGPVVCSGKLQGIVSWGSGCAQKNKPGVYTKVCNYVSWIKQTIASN
Protocol: as §1

Coagulation factor X = Coagulation factor X (Homo sapiens, UniProt P00742)
Coagulation factor X, sequence (P00742 41-179 limits assumed): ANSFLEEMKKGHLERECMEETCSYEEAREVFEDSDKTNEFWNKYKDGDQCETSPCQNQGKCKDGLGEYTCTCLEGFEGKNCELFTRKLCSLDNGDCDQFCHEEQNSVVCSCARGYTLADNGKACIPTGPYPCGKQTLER
Coagulation factor X, sequence (P00742 235-488 limits assumed): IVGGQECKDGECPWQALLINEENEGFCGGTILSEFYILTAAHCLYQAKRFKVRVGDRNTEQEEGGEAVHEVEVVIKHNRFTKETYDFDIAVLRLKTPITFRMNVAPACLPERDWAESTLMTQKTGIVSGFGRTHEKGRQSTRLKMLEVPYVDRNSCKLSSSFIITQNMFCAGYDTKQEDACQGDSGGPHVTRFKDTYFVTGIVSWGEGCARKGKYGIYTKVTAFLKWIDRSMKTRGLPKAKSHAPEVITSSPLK
Protocol: as §1

[2] = molecular target: Urokinase-type plasminogen activator (Homo sapiens, UniProt P00749)
Protocol: as §1

Serine protease 1 [3] = molecular target: Serine protease 1 (Homo sapiens, UniProt P07477)
Serine protease 1 (Homo sapiens, UniProt P07477), sequence (P07477 whole entry): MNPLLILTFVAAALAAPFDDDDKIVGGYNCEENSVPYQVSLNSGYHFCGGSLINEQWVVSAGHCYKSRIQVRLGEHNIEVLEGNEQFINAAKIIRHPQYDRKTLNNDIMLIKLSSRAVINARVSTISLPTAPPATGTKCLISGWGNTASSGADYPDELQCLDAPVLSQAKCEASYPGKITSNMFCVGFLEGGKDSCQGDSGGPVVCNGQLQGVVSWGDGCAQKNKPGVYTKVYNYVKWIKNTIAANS
Protocol: as §1

SMILES | Ki (Prothrombin) | Ki (Serine protease 1 [1]; pH 6.1, 22 °C) | Ki (Coagulation factor X) | Ki [2] | Ki (Serine protease 1 [1]) | Ki (Serine protease 1 [3]) | Ki (Serine protease 1 [1]; pH 7.6, 22 °C) | Ki (Serine protease 1 [1]; pH 8.04, 22 °C) | Ki (Serine protease 1 [1]; pH 7.5, 22 °C)
N=C(N)c1ccc2nc(-c3cc([N+](=O)[O-])ccc3O)[nH]c2c1 [2-{5-[amino(iminiumyl)methyl]-1H-1,3-benzodiazol-2-yl}-4-nitrobenzen-1-olate] | 23000 nM | 470 nM | 7300 nM | 5100 nM | – | – | – | – | –
N=C(N)c1ccc2[nH]c(-c3cc(Cl)cc(-c4ccccc4)c3O)cc2c1 [2-{5-[amino(iminiumyl)methyl]-1H-indol-2-yl}-4-chloro-6-phenylbenzen-1-olate] | 1000 nM | – | 250 nM | 590 nM | 13 nM | 540 nM | – | – | –
Cc1cc(-c2ccccc2)c(O)c(-c2cc3cc(C(=N)N)ccc3[nH]2)c1 [2-{5-[amino(iminiumyl)methyl]-1H-indol-2-yl}-4-methyl-6-phenylbenzen-1-olate] | – | – | 180 nM | 340 nM | – | 380 nM | 15 nM | – | –
N=C(N)c1ccc2[nH]c(-c3ccccc3O)cc2c1 [2-{5-[amino(iminiumyl)methyl]-1H-indol-2-yl}benzen-1-olate] | 12000 nM | – | 2400 nM | 2900 nM | – | 4900 nM | – | 600 nM | –
N=C(N)c1cc2nc(-c3cccc(-c4ccccc4)c3O)[nH]c2cc1F [2-{5-[amino(iminiumyl)methyl]-6-fluoro-1H-1,3-benzodiazol-2-yl}-6-phenylbenzen-1-olate] | – | – | – | 280 nM | – | 12000 nM | – | – | 230 nM
N=C(N)c1ccc2nc(-c3cc([C@@H](CC(=O)O)C(=O)O)cc(-c4ccccc4)c3O)[nH]c2c1 [(2R)-2-(3-{5-[amino(iminiumyl)methyl]-1H-1,3-benzodiazol-2-yl}-4-oxido-5-phenylphenyl)butanedioate] | 160000 nM | – | 1200 nM | 120 nM | 290 nM | 3700 nM | – | – | –
N=C(N)c1ccc2[nH]c(-c3cc([C@@H](CC(=O)O)C(=O)O)cc(Br)c3O)cc2c1 [(2R)-2-(3-{5-[amino(iminiumyl)methyl]-1H-indol-2-yl}-5-bromo-4-oxidophenyl)butanedioate] | 1700 nM | – | 48 nM | – | 240 nM | 1700 nM | – | – | –
